# Test results taken from US12252457B2, “Compositions and methods for reducing tactile dysfunction, anxiety, and social impairment” (President and Fellows of Harvard College, priority 2018, dated 2025).
# Several values for one entry are separate records, joined by “and”; a condition that tells them apart may be missing. Equal values may be shown once. Entries after “also recorded” stand apart in the source; their conditions may differ. Where a name gives a salt, the structure may show the parent alone. Read-outs that look alike come from different tables or passages of the source.
# Key:
# [1] = target: T1, human GABA-A α1β3γ2 ion channels (Homo sapiens, UniProt P14867+P28472); assay: Human GABA-A receptor IonFlux HT agonist assay (Cl-flux), α1β3γ2; assay type: cell-based; details: for Normalized Peak hGABAA α1β3γ2 Current (%) Agonist, Mean: normalized to EC100 GABA (30 μM)
# T1 construct: expressed in transfected cells
# T1 sequence (P14867 28-456): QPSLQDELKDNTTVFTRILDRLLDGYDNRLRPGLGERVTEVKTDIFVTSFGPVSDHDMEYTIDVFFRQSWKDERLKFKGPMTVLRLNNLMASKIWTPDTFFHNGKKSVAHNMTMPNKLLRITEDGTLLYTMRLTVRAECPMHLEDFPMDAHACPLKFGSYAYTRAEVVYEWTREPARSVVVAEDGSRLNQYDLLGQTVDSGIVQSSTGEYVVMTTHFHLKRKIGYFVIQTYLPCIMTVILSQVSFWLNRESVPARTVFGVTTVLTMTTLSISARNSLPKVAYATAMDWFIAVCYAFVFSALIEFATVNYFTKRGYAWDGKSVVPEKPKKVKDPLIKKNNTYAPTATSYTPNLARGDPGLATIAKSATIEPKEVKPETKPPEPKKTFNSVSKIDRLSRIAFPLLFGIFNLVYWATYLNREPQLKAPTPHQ
# T1 sequence (P28472 26-473): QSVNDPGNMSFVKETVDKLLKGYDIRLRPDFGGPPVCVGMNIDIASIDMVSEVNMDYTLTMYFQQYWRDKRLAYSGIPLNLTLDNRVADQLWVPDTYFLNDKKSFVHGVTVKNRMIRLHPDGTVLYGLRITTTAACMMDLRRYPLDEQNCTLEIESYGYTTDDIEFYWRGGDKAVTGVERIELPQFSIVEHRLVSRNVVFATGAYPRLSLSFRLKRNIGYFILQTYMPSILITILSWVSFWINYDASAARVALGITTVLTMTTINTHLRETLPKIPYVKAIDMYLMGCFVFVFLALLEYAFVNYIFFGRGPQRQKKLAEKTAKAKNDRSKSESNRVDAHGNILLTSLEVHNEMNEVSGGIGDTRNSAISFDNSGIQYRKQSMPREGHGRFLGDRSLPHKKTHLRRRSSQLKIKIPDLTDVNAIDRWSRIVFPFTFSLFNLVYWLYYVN
# T1 sequence (P18507 40-467 partner limits assumed): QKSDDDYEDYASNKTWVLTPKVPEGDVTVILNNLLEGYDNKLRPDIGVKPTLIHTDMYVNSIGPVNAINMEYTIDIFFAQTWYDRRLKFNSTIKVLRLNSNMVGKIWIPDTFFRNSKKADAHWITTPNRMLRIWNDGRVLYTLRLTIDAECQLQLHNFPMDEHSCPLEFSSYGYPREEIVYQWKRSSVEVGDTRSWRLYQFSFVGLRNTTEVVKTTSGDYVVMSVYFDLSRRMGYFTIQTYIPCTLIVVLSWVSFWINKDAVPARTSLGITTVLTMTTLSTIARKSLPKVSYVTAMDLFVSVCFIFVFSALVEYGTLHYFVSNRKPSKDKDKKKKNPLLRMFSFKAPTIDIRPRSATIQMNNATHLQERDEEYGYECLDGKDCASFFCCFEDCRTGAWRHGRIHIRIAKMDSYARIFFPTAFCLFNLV
# Description: (§1) Six additions of 0.33% DMSO for 2 seconds were introduced to the cells to act as a time matched vehicle control for the agonist. Note: The test compound was applied over two ‘experimental patterns’ in increasing concentrations. […] Time-matched negative and reference compound data are included for comparison.
# The supplied compounds were prepared in DMSO to concentrations that were 300× the final assay concentrations of 0.1, 0.3, 1, 3, 10, 30 and 100 μM. Aliquots were taken out and diluted 300× into external buffer to give the final assay concentration. All wells included a final DMSO concentration of 0.33% including all control wells.
# (§2) All recordings were obtained from a holding potential of −60 mV. The compound addition sequence that was used for all additions was the same for all assays. […] Each test concentration of compound was applied for 2 seconds followed by 30 seconds wash. The process was repeated with the next ascending concentration of test compound up to a maximum of six concentrations per well (FIG. 14).
# (§3) Peak inward currents in response to the additions of compound were measured. […] All data were first exported to an Excel compatible data file and then analyzed using Graph Pad Prism software.
# [2] = target: T2, human GABA-A α2β3γ2 ion channels (Homo sapiens, UniProt P28472+P47869); assay: Human GABA-A receptor IonFlux HT agonist assay (Cl-flux), α2β3γ2; assay type: cell-based; details: for Normalized Percentage Activation, Mean: hGABAA α2β3γ2
# T2 construct: expressed in transfected cells
# T2 sequence (P47869 29-451): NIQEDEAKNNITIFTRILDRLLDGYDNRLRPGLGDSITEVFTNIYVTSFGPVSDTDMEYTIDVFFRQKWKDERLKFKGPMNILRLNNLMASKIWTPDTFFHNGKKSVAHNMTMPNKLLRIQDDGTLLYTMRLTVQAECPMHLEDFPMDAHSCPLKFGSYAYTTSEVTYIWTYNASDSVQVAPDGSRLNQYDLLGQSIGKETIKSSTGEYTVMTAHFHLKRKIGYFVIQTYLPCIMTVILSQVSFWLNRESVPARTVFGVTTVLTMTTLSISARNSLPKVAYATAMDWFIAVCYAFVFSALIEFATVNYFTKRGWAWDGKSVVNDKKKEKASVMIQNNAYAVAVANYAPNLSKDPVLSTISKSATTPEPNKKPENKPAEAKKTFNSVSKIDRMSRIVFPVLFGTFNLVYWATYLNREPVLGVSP
# T2 sequence (P28472 26-473): T1 sequence (P28472 26-473)
# T2 sequence (P18507 40-467 partner limits assumed): T1 sequence (P18507 40-467 partner limits assumed)
# Text: as §1, with “(FIG. 12A) Six” for “Six”, “agonist. (FIG. 12B)” for “agonist.”
# […] Aliquots were taken out and diluted 300× into external buffer to give the final assay concentration. All wells included a final DMSO concentration of 0.33% including all control wells.
# as §2, §3
SMILES,agonism of α1β3γ2-containing GABAA receptor (in words) [1],"Normalized Peak hGABAA α1β3γ2 Current (%) Agonist, Mean ([1]; 0.1 μM) [%]","Normalized Peak hGABAA α1β3γ2 Current (%) Agonist, Mean ([1]; 0.3 μM) [%]","Normalized Peak hGABAA α1β3γ2 Current (%) Agonist, Mean ([1]; 1 μM) [%]","Normalized Peak hGABAA α1β3γ2 Current (%) Agonist, Mean ([1]; 3 μM) [%]","Normalized Peak hGABAA α1β3γ2 Current (%) Agonist, Mean ([1]; 10 μM) [%]","Normalized Peak hGABAA α1β3γ2 Current (%) Agonist, Mean ([1]; 30 μM) [%]","Normalized Peak hGABAA α1β3γ2 Current (%) Agonist, Mean ([1]; 100 μM) [%]",EC50 [2] [µM],"Normalized Percentage Activation, Mean ([2]; 0.3 μM) [%]","Normalized Percentage Activation, Mean ([2]; 1 μM) [%]","Normalized Percentage Activation, Mean ([2]; 3 μM) [%]","Normalized Percentage Activation, Mean ([2]; 10 μM) [%]","Normalized Percentage Activation, Mean ([2]; 30 μM) [%]","Normalized Percentage Activation, Mean ([2]; 100 μM) [%]","Normalized Percentage Activation, Mean ([2]; 300 μM) [%]","Normalized Percentage Activation, Mean ([2]; 1000 μM) [%]",agonism of α2β3γ2-containing GABAA receptor (in words) ([2]; hydrochloride),"EC50 ([1]; GABAA receptor chloride flux assay, read-out: EC50, activation of α1β3γ2-containing GABAA receptors)","EC50 ([2]; GABAA receptor chloride flux assay, read-out: Estimated EC50 (μM), activation of α2β3γ2-containing GABAA receptors) [µM]"
"NC1C=C(C(=O)O)CCC1 (centres unmarked) [Compound 5, 3-aminocyclohex-1-enecarboxylic acid hydrochloride]",not an agonist,0.58,0.56,0.58,0.62,0.79,0.57,0.49,> 1000,1.42,1.28,1.23,1.56,1.48,1.96,1.77,1.64,not an agonist; also recorded: no agonism,,
"O=C(O)C1=CCNCC1 [Isoguvacine, isoguvacine]",,0.55,1.02,1.92,4.94,21.18,53.29,79.91,,2.09,4.69,10.43,32.71,63.48,85.91,99.01,100.05,,23.3 µM and 19.7 µM,18.7
